Assay results from paper PMC5015216, “Change in decay rates of dioxin-like compounds in Yusho patients” (Environmental Health, 2016).
Where two headings read alike, the source gives them in different places.

Tests used:
[1] = Longitudinal blood concentration / body burden in Yusho cohort 2002-2010, second-order regression of log body burden; assay type: in vivo, human (Yusho patients)
Text: The subjects were 354 patients whose blood concentration of 2,3,4,7,8-PeCDF had been measured three or more times at annual Yusho medical checkups between 2002 and 2010, i.e., 34–42 years since exposure, and for whom the period from the first to last measurement was over 4 years. We examined two chemicals: 2,3,4,7,8-PeCDF, which is the causative chemical, and octachlorodibenzodioxin (OCDD), which is a chemical found in Yusho patients but less commonly in the general public. This research was approved by Nara Medical University Ethics Committee (No. 281–2).
For the logarithm of body burden, which was calculated from concentration and weight, we examined the second derivative by second-order regression. The body burden Cit of patient i at time t is given by:1 logCit=βi+α1t+α2t^2+γ1w1it+γ2w2it
where t is the time, with t = 0 denoting 2006 (middle of the observation period), α2 is the coefficient for a second-order derivative, α1 is the first-order derivative at time t = 0, βi is the reference value for each individual, W1it is the weight and W2it is the lipid in blood (%) of patient i at time t, and γj is the coefficient for weight and lipid in blood. Aylward et al. used an estimate of body fat as volume of distribution, but we used weight and lipid in blood.
We combined all observed concentrations into equation (2):2 y=X⋅β+T⋅α+W⋅γ+ε
where y is the vector of the logarithm of dioxins and dioxin-like compounds in blood lipid concentration, Xβ is the base concentration for each patient, Tα is the change in time, Wγ is an adjustment term according to weight and lipid in blood, and ε is an observation error. X is a matrix with the total number of measurements rows and number of patient columns. T is a matrix with the total number of measurement rows and two columns, second-order and first-order for time. W is the matrix with the total number of measurement rows and two columns, weight and lipid. Equation (3) is a matrix form:3 y=XTWβαγ+ε
By solving multiple linear regressions with the lm function in R, we could estimate first- and second-order derivatives. It was assumed that patients in the same group had same trend with regard to time. […] For the case of one patient and no second-order coefficient measurements, equation (3) equals leads to an equation for estimation of decay rate:4 ka=lnCt2−lnCt1/Δt
We estimated the first- and second-order coefficients, equivalent to the decay rate and change in decay rate, for OCDD and 2,3,4,7,8-PeCDF for each patient group shown in Table 1.

[2] = cited from earlier work
[3] = patient group 2,3,4,7,8-PeCDF concentration range 0–10 pg/g lipid
[4] = patient group concentration range 0–10 pg/g lipid
[5] = patient group concentration range 10–20 pg/g lipid
[6] = patient group concentration range 20–50 pg/g lipid
[7] = patient group concentration range 50–100 pg/g lipid
[8] = patient group concentration range >100 pg/g lipid

| SMILES | Second-order coefficient (equivalent to minus change in apparent elimination rate in 2006) [1, 3] | First-order coefficient (equivalent to minus apparent elimination rate) [1, 4] | First-order coefficient (equivalent to minus apparent elimination rate) [1, 5] | Second-order coefficient (equivalent to minus change in apparent elimination rate in 2006) [1, 5] | First-order coefficient (equivalent to minus apparent elimination rate) [1, 6] | Second-order coefficient (equivalent to minus change in apparent elimination rate in 2006) [1, 6] | First-order coefficient (equivalent to minus apparent elimination rate) [1, 7] | Second-order coefficient (equivalent to minus change in apparent elimination rate in 2006) [1, 7] | First-order coefficient (equivalent to minus apparent elimination rate) [1, 8] | Second-order coefficient (equivalent to minus change in apparent elimination rate in 2006) [1, 8] | apparent half-life ([2]; Yusho patients with blood 2,3,4,7,8-PeCDF ≥50 pg/g lipid, first of two groups) | change in blood levels over time ([2]; Yusho patients with blood 2,3,4,7,8-PeCDF ≥50 pg/g lipid, second of two groups) | apparent half-life ([2]; Yusho patients, group that became larger since medical checkups began) | apparent half-life ([2]; Yusho patients, group that became smaller since medical checkups began) |
| --- | --- | --- | --- | --- | --- | --- | --- | --- | --- | --- | --- | --- | --- | --- |
| Clc1c(Cl)c(Cl)c2c(c1Cl)Oc1c(Cl)c(Cl)c(Cl)c(Cl)c1O2 [OCDD, octachlorodibenzodioxin] | −0.006366 | −0.01433 | −0.01954 | −0.003289 | −0.02054 | −0.001897 | −0.01224 | −0.002991 | −0.009034 | −0.004341 | – | – | – | – |
| Clc1cc2oc3c(Cl)c(Cl)c(Cl)cc3c2cc1Cl [2,3,4,7,8-PeCDF, 2,3,4,7,8-pentachlorodibenzofuran] | −0.000596 | −0.004032 | −0.000462 | 0.000464 | 0.001669 | 0.000643 | −0.005452 | 0.002124 | −0.008294 | 0.001436 | ≈ 10 years | no reduction | near infinite | around 10 years |
